According to article PMC5518866 (British Journal of Cancer, 2017):
Read-outs that look alike come from different tables or passages of the source.

Tests used:
advanced malignancies = settings: phase I, cited from earlier work
[1] = test system: previously treated patients with SCLC; settings: phase II, ref Stephenson et al, 2014; cited from earlier work
human cancer cell lines = settings: large panel of human cancer cell lines; ref Siemeister et al, 2012; cited from earlier work
[2] = test system: proliferating cell nuclear antigen (PCNA); assay: PCNA RNA expression in whole blood; assay type: in vivo, human; settings: for Difference of mean ΔCT values from baseline (ΔΔCT), PCNA: 6 h post dose, whole blood
xenograft mouse models = settings: ref Siemeister et al, 2012; cited from earlier work
[3] = test system: cell-cycle CDKs 1, 2, 4, and 6 and transcriptional CDKs 7 and 9; settings: cited from earlier work
[4] = test system: patients with advanced malignancies; assay: Tumour response; assay type: in vivo, human; settings: 10 patients
[5] = test system: patients with advanced malignancies; assay: Tumour response; assay type: in vivo, human
[6] = 104 patients with solid tumours
[7] = seven patients, lymphoid malignancy dose-escalation cohorts

CCc1cnn2c(NCc3ccc[n+]([O-])c3)cc(N3CCCC[C@H]3CCO)nc12 [dinaciclib]
Disease control rate (DCR) (advanced malignancies; ref Nemunaitis et al, 2013): 20.8% | Objective responses [1]: no objective responses

CC(=O)c1c(C)c2cnc(Nc3ccc(N4CCNCC4)cn3)nc2n(C2CCCC2)c1=O [palbociclib]
Disease control rate (DCR) (advanced malignancies; ref Flaherty et al, 2012): 27%

roniciclib
Anti-proliferative activity (human cancer cell lines): broad-spectrum anti-proliferative activity | PCNA expression in peripheral whole blood (fold-change from baseline) ([2]; 6 h post dose on cycle 1, day 1, ovarian cancer and SCLC patients): significantly inhibited expression of PCNA | Difference of mean ΔCT values from baseline (ΔΔCT), PCNA ([2]; Ovarian cancer cohort, Cycle 1, day 1): 1.720 | Difference of mean ΔCT values from baseline (ΔΔCT), PCNA ([2]; Ovarian cancer cohort, Cycle 1, day 10): 0.521 | Difference of mean ΔCT values from baseline (ΔΔCT), PCNA ([2]; SCLC cohort, Cycle 1, day 1): 1.006 | Difference of mean ΔCT values from baseline (ΔΔCT), PCNA ([2]; SCLC cohort, Cycle 1, day 10): 0.224 | Tumour growth inhibition (xenograft mouse models): strongly inhibited tumour growth in a dose-dependent manner | Activity against CDKs [3]: low nanomolar activity | Complete or partial response [4]: No patients | Stable disease, patients [4]: five | Disease control rate (DCR) ([5]; 5 mg BID, solid tumours bearing a CDK-related tumour mutation (n=6)): 33.3% | Complete response [5, 6]: none | Disease control rate (DCR) [5, 6]: 32.7% | Partial response [5, 6]: 1.0% | Radiological progressive disease [5, 6]: 38.5% | Response rate [5, 6]: 1.0% | Stable disease [5, 6]: 31.7% | Disease control rate (DCR) ([5]; lymphoid malignancy dose-escalation cohorts): 42.9% | Complete or partial response [5, 7]: none | Stable disease, patients [5, 7]: three
